Experimental data taken from article PMC6433232, “Targeting mitochondria in cancer therapy could provide a basis for the selective anti-cancer activity” (PLoS ONE, 2019).
pEC50: −log10 of the molar value. Where two headings read alike, the source gives them in different places.

Key:
MIA PaCa-2 cells = test: Hydrogen peroxide cell-based assay (ROS induction), MIA PaCa-2 cells; details: Homo sapiens, hydrogen peroxide level relative to DMSO-treated cells (100%), read-out: ROS increase, % MIA PaCa-2
Procedure: (§1) Cells were incubated for 2 h with either compounds (30 μM) or DMSO in a 96-well plate. After the treatment, 80 μl of cell culture medium was collected and the level of hydrogen peroxide was determined using a Hydrogen Peroxide Cell-Based Assay kit (Cayman).
(§2) Cells were incubated with the compounds for 4 h and the level of ROS induction was measured by a hydrogen peroxide cell-based assay kit. Compounds were assayed at a fixed concentration of 30 μM and the measured level of hydrogen peroxide was expressed as percentage in relation to DMSO-treated cells (100%). […] This distinction was more evident for compounds with the highest selective cytotoxicity index. […] We conclude that the selective induction of ROS in cancer cells is required but not sufficient factor for the selective anti-tumor activity.

hepatocytes = test: Hydrogen peroxide cell-based assay (ROS induction), hepatocytes; design: species or system Human; details: 30 μM; hydrogen peroxide level relative to DMSO-treated cells (100%)
Procedure: as §1, §2

[1] = Distribution coefficient LogD; assay type: physicochemical; details: octanol/water, pH 7.4; read-out: LogD, pH = 7.4
Source text: We conclude that the analysis of the octanol-water partitioning is not sufficient to establish a link between degree of lipophilicity and biological activities of the selected compounds.

[2] = test system: Recombinant NADH/NADPH dehydrogenase; test: NADH/NADPH dehydrogenase-mediated ROS generation assay; assay type: biochemical; details: 30 μM, 4 h at 37°C; for H2O2 generation, NADH/NADPH dehydrogenase -: absence of NADH/NADPH dehydrogenase; for H2O2 generation, NADH/NADPH dehydrogenase +: presence of NADH/NADPH dehydrogenase
Procedure: Recombinant NADH/NADPH dehydrogenase (0.5 units/well) in a 96-well plate was incubated in 100 μl of the assay buffer (50 mM potassium phosphate buffer, pH 7.5 supplemented with 1 mM EDTA) containing NADPH (3 μM) and superoxide dismutase (SOD) (100 units/well) with and without compound (30 μM) for 4 h at 37°C. At the end of incubation, the level of hydrogen peroxide was measured using a Hydrogen Peroxide Assay kit (Cayman). Control samples were without NADH/NADPH dehydrogenase. The rate of NADH/NADPH dehydrogenase- and compound-mediated ROS production was determined by subtracting values that were obtained in the absence of NADPH dehydrogenase. One unit of NADH/NADPH dehydrogenase was defined as the amount of enzyme required to reduce 1.0 μmole cytochrome C per min/mg in the presence of menadione substrate at 37°C. One unit of SOD was defined as the amount of enzyme required to inhibit reduction of cytochrome C by 50% in a coupled system with xanthine oxidase at pH 7.8 at 25°C in a 3.0 mL reaction volume. Xanthine oxidase concentration should produce an initial ΔA550 of 0.025 ± 0.005 per min.
As the next step, we examined the capability of the selected compounds to generate ROS in the presence or absence of NADH/NADPH dehydrogenase (Table 1). ROS can be generated by NADH/NADPH-dehydrogenase via the one electron reduction of a quinone ring of 1,4-NQs. Unstable half-reduced quinones (semiquinones) transfer electrons to molecular oxygen, thus generating superoxide anion radicals (O2^●-), which are converted by SOD to hydrogen peroxide. We believe that our assay measuring compound’s ability to generate H2O2 in the presence or absence of NADH/NADPH dehydrogenase more closely resembles conditions inside the cell than the assay designed to measure compound’s redox potential values. […] To determine the ability of compounds to induce ROS, compounds were incubated for 4 h at 37°C with and without NADH/NADPH-dehydrogenase in the presence of NADPH as an electron donor and SOD to convert generated superoxide radicals into hydrogen peroxide. At the end of incubation, 10-acetyl-3,7-dihydroxyphenoxazine (ADHP) and horseradish peroxidase (HRP) were added to the reaction and the level of HRP-mediated formation of the fluorogenic product, resorufin, was measured on a plate reader. ROS production was detected in reactions with either the toxic or non-toxic compounds.

[3] = test system: pancreatic cancer MIA PaCa-2 cells; test: cells; details: for EC50 / CC50: Homo sapiens; for EC50: MIA PaCa-2, read-out: EC50, μM MIA PaCa-2; for CC50: MIA PaCa-2, read-out: LC50 MIA PaCa-2
Procedure: Fig 1 A, Structure of NSC130362. B, Dose response curve of NSC130362 in MIA PaCa-2 cells. Cells were pre-incubated with NSC130362 for 2 h followed by addition of ATO (5 μM) and incubation for an additional 24 h. At the end of the treatment, the ratio of dead cells was determined by a CellTiterGlo reagent.

human GAPDH enzyme = molecular target: T1, human GAPDH enzyme (Homo sapiens, UniProt P04406); test: GAPDH activity assay in MIA PaCa-2 cells; assay type: cell-based; details: 2 h; for remaining activity at 30 µM: read-out: GAPDH, enzyme residual activity as compared to DMSO-treated sample; for inhibition of GAPDH: 30 μM
T1 construct: endogenous in cells; host or cells: MIA PaCa-2 cells
T1 sequence (P04406 whole entry): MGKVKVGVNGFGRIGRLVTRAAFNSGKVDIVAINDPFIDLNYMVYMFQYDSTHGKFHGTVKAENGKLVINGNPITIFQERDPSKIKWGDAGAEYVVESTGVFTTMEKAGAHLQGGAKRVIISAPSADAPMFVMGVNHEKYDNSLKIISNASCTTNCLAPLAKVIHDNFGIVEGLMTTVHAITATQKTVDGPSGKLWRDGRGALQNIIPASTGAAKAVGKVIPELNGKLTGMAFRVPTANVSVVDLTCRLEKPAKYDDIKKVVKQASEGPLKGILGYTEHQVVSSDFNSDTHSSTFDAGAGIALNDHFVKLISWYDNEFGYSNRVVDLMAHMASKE
Procedure: Cells were incubated for 2 h with either compounds (30 μM) or DMSO in a 6-well plate. Next, cells were collected in 200 μl of PBS and disrupted by sonication. Insoluble material was removed by centrifugation. The level of GAPDH activity was determined by GAPDH activity assay kit (BioVision).
As a final step, we evaluated the inhibitory activity of the selected compounds against human GAPDH enzyme in a cell-based assay using MIA PaCa-2 cells (Table 1). Cells were pre-incubated with compounds for 2 h at 37°C followed by cell lysis using sonication and GAPDH activity assay. The ability of compounds to inhibit GAPDH was expressed as percentage of GAPDH residual activity with respect to DMSO-treated cells. […] Similar to the GSR activity assay, only two of the most toxic compounds 31 and 32, were able to inhibit GAPDH by 95 and 97%, respectively.

in vitro = details: human, primary hepatocytes
Source text: (§3) We selected hepatocytes as normal cells because hepatocytes are mediate toxicity to multiple drugs and are used as a standard to assess toxicity of drugs in vitro [28]. […] For comparison with the standard of care, doxorubicin was also included in this analysis.

[4] = test system: human primary hepatocytes; test: cells; details: Hepatocyte; for EC50: read-out: EC50, μM Hepatocytes
Source text: as §3

[5] = test system: Complex I (bovine heart mitochondria); test: MitoCheck Complex I activity assay; details: 30 μM; for Mito Check I, enzyme residual activity as compared to DMSO-treated sample: bovine heart mitochondria, NADH oxidation
Procedure: MitoCheck Complex I activity was determined as described in the manual of the manufacturer’s manual (Cayman). Briefly, compounds (30 μM) or DMSO were mixed with the Complex I activity assay buffer that contained bovine heart mitochondria reagent, NADH, and ubiquinone in the presence of KCN to inhibit complex IV activity. The level of Complex I activity was monitored in a kinetic assay of NADH oxidation by measuring a decrease in absorbance at 340 nm. The residual Complex I activity was calculated by dividing the rate of compound wells by the rate of DMSO wells for the linear portion of the curve.
To test possible effects of compounds on ETC, we analyzed the Complex I-mediated NADH oxidation using a MitoCheck Complex I Activity Assay Kit. The level of NADH oxidation was measured by a decrease in absorbance at 340 nm and expressed as percentage of residual activity in relation to DMSO-treated mitochondria (Table 1). […] Complex I activity was estimated by the rate of NADH oxidation which was also affected by NADH/NADPH-dehydrogenase-mediated redox cycling.

CCCCCCCNC1=C(Cl)C(=O)c2ccccc2C1=O [compound 8]
activity at 30 µM (MIA PaCa-2 cells): 110% | ROS increase, % Hepatocytes (hepatocytes): 115% | logD [1]: 0.17 | H2O2 generation, NADH/NADPH dehydrogenase - [2]: 2.0 µM | H2O2 generation, NADH/NADPH dehydrogenase + [2]: 2.8 µM | EC50 [3]: > 90 µM | CC50 [3]: > 90 µM | remaining activity at 30 µM (human GAPDH enzyme): 100% | CC50 (in vitro): 78.6 µM | EC50 [4]: 78.6 µM | Mito Check I, enzyme residual activity as compared to DMSO-treated sample [5]: 116%

CC(C)(C)NC1=C(Cl)C(=O)c2ccccc2C1=O [compound 13]
activity at 30 µM (MIA PaCa-2 cells): 248% | ROS increase, % Hepatocytes (hepatocytes): 123% | logD [1]: 0.52 | H2O2 generation, NADH/NADPH dehydrogenase - [2]: 2.7 µM | H2O2 generation, NADH/NADPH dehydrogenase + [2]: 4.3 µM | EC50 [3]: 7.2 µM | CC50 [3]: 7.2 µM | remaining activity at 30 µM (human GAPDH enzyme): 100% | CC50 (in vitro): 29.9 µM | EC50 [4]: 29.9 µM | Mito Check I, enzyme residual activity as compared to DMSO-treated sample [5]: 84%

O=C1C(Cl)=C(NCCO)C(=O)c2ccccc21 [compound 17]
activity at 30 µM (MIA PaCa-2 cells): 295% | ROS increase, % Hepatocytes (hepatocytes): 132% | logD [1]: 1.12 | H2O2 generation, NADH/NADPH dehydrogenase - [2]: 2.6 µM | H2O2 generation, NADH/NADPH dehydrogenase + [2]: 4.8 µM | EC50 [3]: 9.8 µM | CC50 [3]: 9.8 µM | dose-response in MIA PaCa-2 cells ([3]; in the presence of ATO (5 μM), 24 h): induced a dose-response over a hundred-fold concentration range | remaining activity at 30 µM (human GAPDH enzyme): 89% | CC50 (in vitro): 83 µM | EC50 [4]: 83 µM | Mito Check I, enzyme residual activity as compared to DMSO-treated sample [5]: 38%

COCCNC1=C(Cl)C(=O)c2ccccc2C1=O [compound 21]
activity at 30 µM (MIA PaCa-2 cells): 254% | ROS increase, % Hepatocytes (hepatocytes): 154% | logD [1]: 0 | H2O2 generation, NADH/NADPH dehydrogenase - [2]: 6.5 µM | H2O2 generation, NADH/NADPH dehydrogenase + [2]: 6.4 µM | EC50 [3]: 13.8 µM | CC50 [3]: 13.8 µM | remaining activity at 30 µM (human GAPDH enzyme): 100% | CC50 (in vitro): 60.4 µM | EC50 [4]: 60.4 µM | Mito Check I, enzyme residual activity as compared to DMSO-treated sample [5]: 104%

CCCCOCCCNC1=C(Cl)C(=O)c2ccccc2C1=O [compound 26]
activity at 30 µM (MIA PaCa-2 cells): 889% | ROS increase, % Hepatocytes (hepatocytes): 191% | logD [1]: 0 | H2O2 generation, NADH/NADPH dehydrogenase - [2]: 5.9 µM | H2O2 generation, NADH/NADPH dehydrogenase + [2]: 3.8 µM | EC50 [3]: 26.6 µM | CC50 [3]: 26.6 µM | remaining activity at 30 µM (human GAPDH enzyme): 94% | CC50 (in vitro): 4.8 µM | pEC50 ([4]; read-out: EC50, toxicity to hepatocytes): 5.44 | EC50 [4]: 4.8 µM | Mito Check I, enzyme residual activity as compared to DMSO-treated sample [5]: 112%

CCCC(=O)NC1=C(Cl)C(=O)c2ccccc2C1=O [compound 31]
activity at 30 µM (MIA PaCa-2 cells): 251% | ROS increase, % Hepatocytes (hepatocytes): 228% | logD [1]: 2.03 | H2O2 generation, NADH/NADPH dehydrogenase - [2]: 5.7 µM | H2O2 generation, NADH/NADPH dehydrogenase + [2]: 9.0 µM | EC50 [3]: 10.4 µM | CC50 [3]: 10.4 µM | inhibition of GAPDH (human GAPDH enzyme): almost completely inhibited GAPDH | inhibition at 30 µM (human GAPDH enzyme): 95% | remaining activity at 30 µM (human GAPDH enzyme): 5% | CC50 (in vitro): 1.6 µM | EC50 [4]: 1.6 µM | stimulation of Complex I activity [5]: more than 30% | Mito Check I, enzyme residual activity as compared to DMSO-treated sample [5]: 159%

CCCCC(=O)NC1=C(Cl)C(=O)c2ccccc2C1=O [compound 32]
activity at 30 µM (MIA PaCa-2 cells): 506% | ROS increase, % Hepatocytes (hepatocytes): 249% | logD [1]: 2.79 | H2O2 generation, NADH/NADPH dehydrogenase - [2]: 6.3 µM | H2O2 generation, NADH/NADPH dehydrogenase + [2]: 10.6 µM | EC50 [3]: 10.2 µM | CC50 [3]: 10.2 µM | inhibition of GAPDH (human GAPDH enzyme): almost completely inhibited GAPDH | inhibition at 30 µM (human GAPDH enzyme): 97% | remaining activity at 30 µM (human GAPDH enzyme): 3% | CC50 (in vitro): 2.2 µM | EC50 [4]: 2.2 µM | stimulation of Complex I activity [5]: more than 30% | Mito Check I, enzyme residual activity as compared to DMSO-treated sample [5]: 135%

O=C1C(Cl)=C(NCCc2ccccc2)C(=O)c2ccccc21 [compound 36]
activity at 30 µM (MIA PaCa-2 cells): 721% | ROS increase, % Hepatocytes (hepatocytes): 178% | logD [1]: 0 | H2O2 generation, NADH/NADPH dehydrogenase - [2]: 7.0 µM | H2O2 generation, NADH/NADPH dehydrogenase + [2]: 6.3 µM | EC50 [3]: 16.2 µM | CC50 [3]: 16.2 µM | remaining activity at 30 µM (human GAPDH enzyme): 97% | CC50 (in vitro): 8.8 µM | EC50 [4]: 8.8 µM | stimulation of Complex I activity [5]: more than 30% | Mito Check I, enzyme residual activity as compared to DMSO-treated sample [5]: 135%
